Experimental data as given in ChEMBL document CHEMBL4138123, “Design, synthesis and biological evaluation of novel pyrazolochalcones as potential modulators of PI3K/Akt/mTOR pathway and inducers of apoptosis in breast cancer cells” (Eur J Med Chem, 2017).

What was measured:
Format in all cases: functional
[1] = tested on: TK-10; assay: Cytotoxicity against human TK10 cells assessed as cell growth at 10 uM after 48 hrs by sulforhodamine B assay relative to control; settings: TK-10, 48 h, read-out: Activity
[2] = tested on: TK-10; assay: Cytotoxicity against human TK10 cells assessed as growth inhibition after 48 hrs by sulforhodamine B assay; settings: TK-10, 48 h
[3] = tested on: NCI-H460; assay: Cytotoxicity against human NCI-H460 cells assessed as cell growth at 0.01 uM after 48 hrs by sulforhodamine B assay relative to control; settings: NCI-H460, 48 h, read-out: Activity
[4] = tested on: PC-3; assay: Cytotoxicity against human PC3 cells assessed as cell growth at 10 uM after 48 hrs by sulforhodamine B assay relative to control; settings: PC-3, 48 h, read-out: Activity
[5] = tested on: M14; assay: Cytotoxicity against human M14 cells assessed as cell growth at 1 uM after 48 hrs by sulforhodamine B assay relative to control; settings: M14, 48 h, read-out: Activity
[6] = tested on: HCC 2998; assay: Cytotoxicity against human HCC2998 cells assessed as cell growth at 10 uM after 48 hrs by sulforhodamine B assay relative to control; settings: HCC 2998, 48 h, read-out: Activity
[7] = tested on: Malme-3M; assay: Cytotoxicity against human MALME-3M cells assessed as cell growth at 100 uM after 48 hrs by sulforhodamine B assay relative to control; settings: read-out: Activity
[8] = tested on: HCT-15; assay: Cytotoxicity against human HCT15 cells assessed as cell growth at 1 uM after 48 hrs by sulforhodamine B assay relative to control; settings: HCT-15, 48 h, read-out: Activity
[9] = tested on: ACHN; assay: Cytotoxicity against human ACHN cells assessed as cell growth at 10 uM after 48 hrs by sulforhodamine B assay relative to control; settings: read-out: Activity
[10] = tested on: A498; assay: Cytotoxicity against human A498 cells assessed as cell growth at 0.1 uM after 48 hrs by sulforhodamine B assay relative to control; settings: A498, 48 h, read-out: Activity
[11] = tested on: BT-549; assay: Cytotoxicity against human BT549 cells assessed as cell growth at 100 uM after 48 hrs by sulforhodamine B assay relative to control; settings: BT-549, 48 h, read-out: Activity
[12] = tested on: OVCAR-8; assay: Cytotoxicity against human OVCAR8 cells assessed as cell growth at 0.01 uM after 48 hrs by sulforhodamine B assay relative to control; settings: OVCAR-8, 48 h, read-out: Activity
[13] = tested on: NCI-H23; assay: Cytotoxicity against human NCI-H23 cells assessed as growth inhibition after 48 hrs by sulforhodamine B assay; settings: NCI-H23, 48 h; for CC50: read-out: LC50 (the source's name)
[14] = tested on: A498; assay: Cytotoxicity against human A498 cells assessed as growth inhibition after 48 hrs by sulforhodamine B assay; settings: A498, 48 h
[15] = tested on: KM12; assay: Cytotoxicity against human KM12 cells assessed as cell growth at 100 uM after 48 hrs by sulforhodamine B assay relative to control; settings: KM12, 48 h, read-out: Activity
[16] = tested on: HCT-15; assay: Cytotoxicity against human HCT15 cells assessed as cell growth at 0.1 uM after 48 hrs by sulforhodamine B assay relative to control; settings: HCT-15, 48 h, read-out: Activity
[17] = tested on: SW-620; assay: Cytotoxicity against human SW620 cells assessed as cell growth at 0.01 uM after 48 hrs by sulforhodamine B assay relative to control; settings: SW-620, 48 h, read-out: Activity
[18] = tested on: HOP-62; assay: Cytotoxicity against human HOP62 cells assessed as growth inhibition after 48 hrs by sulforhodamine B assay; settings: HOP-62, 48 h
[19] = tested on: TK-10; assay: Cytotoxicity against human TK10 cells assessed as cell growth at 0.01 uM after 48 hrs by sulforhodamine B assay relative to control; settings: TK-10, 48 h, read-out: Activity
[20] = tested on: SK-MEL-28; assay: Cytotoxicity against human SK-MEL-28 cells assessed as cell growth at 0.1 uM after 48 hrs by sulforhodamine B assay relative to control; settings: SK-MEL-28, 48 h, read-out: Activity
[21] = tested on: RPMI-8226; assay: Cytotoxicity against human RPMI8226 cells assessed as growth inhibition after 48 hrs by sulforhodamine B assay; settings: RPMI-8226, 48 h
[22] = tested on: NCI/ADR-RES; assay: Cytotoxicity against human NCI/ADR-RES cells assessed as cell growth at 0.1 uM after 48 hrs by sulforhodamine B assay relative to control; settings: read-out: Activity
[23] = tested on: MDA-MB-231; assay: Cytotoxicity against human MDA-MB-231 cells assessed as cell growth at 100 uM after 48 hrs by sulforhodamine B assay relative to control; settings: MDA-MB-231, 48 h, read-out: Activity
[24] = tested on: MDA-MB-435; assay: Cytotoxicity against human MDA-MB-435 cells assessed as cell growth at 0.1 uM after 48 hrs by sulforhodamine B assay relative to control; settings: MDA-MB-435, 48 h, read-out: Activity
[25] = tested on: PC-3; assay: Cytotoxicity against human PC3 cells assessed as cell growth at 100 uM after 48 hrs by sulforhodamine B assay relative to control; settings: PC-3, 48 h, read-out: Activity
[26] = tested on: SK-MEL-5; assay: Cytotoxicity against human SK-MEL-5 cells assessed as growth inhibition after 48 hrs by sulforhodamine B assay; settings: SK-MEL-5, 48 h
[27] = tested on: ACHN; assay: Cytotoxicity against human ACHN cells assessed as cell growth at 100 uM after 48 hrs by sulforhodamine B assay relative to control; settings: read-out: Activity
[28] = tested on: MOLT-4; assay: Cytotoxicity against human MOLT4 cells assessed as cell growth at 100 uM after 48 hrs by sulforhodamine B assay relative to control; settings: MOLT-4, 48 h, read-out: Activity
[29] = tested on: ACHN; assay: Cytotoxicity against human ACHN cells assessed as cell growth at 0.01 uM after 48 hrs by sulforhodamine B assay relative to control; settings: read-out: Activity
[30] = tested on: DU-145; assay: Cytotoxicity against human DU145 cells assessed as cell growth at 1 uM after 48 hrs by sulforhodamine B assay relative to control; settings: DU-145, 48 h, read-out: Activity
[31] = tested on: MDA-MB-468; assay: Cytotoxicity against human MDA-MB-468 cells assessed as cell growth at 1 uM after 48 hrs by sulforhodamine B assay relative to control; settings: MDA-MB-468, 48 h, read-out: Activity
[32] = tested on: HT-29; assay: Cytotoxicity against human HT-29 cells assessed as cell growth at 0.1 uM after 48 hrs by sulforhodamine B assay relative to control; settings: HT-29, 48 h, read-out: Activity
[33] = tested on: SNB-19; assay: Cytotoxicity against human SNB19 cells assessed as growth inhibition after 48 hrs by sulforhodamine B assay; settings: SNB-19, 48 h; for CC50: read-out: LC50 (the source's name)
[34] = tested on: UO-31; assay: Cytotoxicity against human UO31 cells assessed as growth inhibition after 48 hrs by sulforhodamine B assay; settings: UO-31, 48 h
[35] = tested on: SR; assay: Cytotoxicity against human SR cells assessed as cell growth at 0.1 uM after 48 hrs by sulforhodamine B assay relative to control; settings: read-out: Activity

Question: What does the source list for `COc1ccc(-c2cc(/C=C/C(=O)c3ccc(N)cc3)[nH]n2)cc1OC`?
Answer: growth at 10 µM [1]: 56%; GI50 [2]: 1.09 µM; LC50 [2]: 48.7 µM; TGI [2]: 23 µM; growth at 0.01 µM [3]: 101%; growth at 10 µM [4]: 20%; growth at 1 µM [5]: 101%; growth at 10 µM [6]: -75%; growth at 100 µM [7]: -75%; growth at 1 µM [8]: 73%; growth at 10 µM [9]: -82%; growth at 0.1 µM [10]: 80%; growth at 100 µM [11]: -98%; growth at 0.01 µM [12]: 98%; GI50 [13]: 4.21 µM; TGI [13]: 19.3 µM; CC50 [13]: 95.6 µM; GI50 [14]: 2.37 µM; LC50 [14]: 26.2 µM; TGI [14]: 7.09 µM; growth at 100 µM [15]: -98%; growth at 0.1 µM [16]: 95%; growth at 0.01 µM [17]: 99%; GI50 [18]: 2.8 µM; LC50 [18]: 32 µM; TGI [18]: 9.67 µM; growth at 0.01 µM [19]: 102%; growth at 0.1 µM [20]: 93%; GI50 [21]: 1.28 µM; LC50 [21]: > 100 µM; TGI [21]: 5.52 µM; growth at 0.1 µM [22]: 104%; growth at 100 µM [23]: -77%; growth at 0.1 µM [24]: 98%; growth at 100 µM [25]: -48%; GI50 [26]: 3.16 µM; LC50 (concentration killing 50% of cells) [26]: 36.1 µM; TGI [26]: 11.5 µM; growth at 100 µM [27]: -95%; growth at 100 µM [28]: -22%; growth at 0.01 µM [29]: 93%; growth at 1 µM [30]: 97%; growth at 1 µM [31]: 77%; growth at 0.1 µM [32]: 107%; GI50 [33]: 4.36 µM; TGI [33]: 18 µM; CC50 [33]: 46.1 µM; GI50 [34]: 3.03 µM; LC50 [34]: 43.2 µM; TGI [34]: 13.1 µM; growth at 0.1 µM [35]: 104%

Question: For `COc1cc2c(cc1OC)C(=O)/C(=C/c1cc(-c3ccc4c(c3)OCO4)n[nH]1)C2`, which growth at 10 µM [1] is on record?
Answer: -95%

Question: What about the GI50 [2] of the same molecule?
Answer: 1.89 µM

Question: What about the LC50 [2] of the same molecule?
Answer: 5.96 µM

Question: What about the TGI [2] of the same molecule?
Answer: 3.36 µM

Question: What about the growth at 0.01 µM [3] of the same molecule?
Answer: 99%

Question: And the growth at 10 µM [4]?
Answer: -75%

Question: What about the growth at 1 µM [5] of the same molecule?
Answer: 98%

Question: What about the growth at 10 µM [6] of the same molecule?
Answer: -88%

Question: What about the growth at 100 µM [7] of the same molecule?
Answer: -81%

Question: And the growth at 1 µM [8]?
Answer: 56%

Question: What about the growth at 10 µM [9] of the same molecule?
Answer: -90%

Question: And the growth at 0.1 µM [10]?
Answer: 80%

Question: What about the growth at 100 µM [11] of the same molecule?
Answer: -87%

Question: What about the growth at 0.01 µM [12] of the same molecule?
Answer: 98%

Question: And the GI50 [13]?
Answer: 1.87 µM

Question: And the TGI [13]?
Answer: 3.91 µM

Question: What about the CC50 [13] of the same molecule?
Answer: 8.19 µM

Question: And the GI50 [14]?
Answer: 1.33 µM

Question: What about the LC50 [14] of the same molecule?
Answer: 6 µM

Question: And the TGI [14]?
Answer: 2.83 µM

Question: And the growth at 100 µM [15]?
Answer: -80%

Question: And the growth at 0.1 µM [16]?
Answer: 93%

Question: What about the growth at 0.01 µM [17] of the same molecule?
Answer: 98%

Question: And the GI50 [18]?
Answer: 1.53 µM

Question: What about the LC50 [18] of the same molecule?
Answer: 5.72 µM

Question: What about the TGI [18] of the same molecule?
Answer: 2.96 µM

Question: What about the growth at 0.01 µM [19] of the same molecule?
Answer: 88%

Question: What about the growth at 0.1 µM [20] of the same molecule?
Answer: 101%

Question: And the GI50 [21]?
Answer: 0.23 µM

Question: And the LC50 [21]?
Answer: 5.52 µM

Question: What about the TGI [21] of the same molecule?
Answer: 0.623 µM

Question: And the growth at 0.1 µM [22]?
Answer: 100%

Question: And the growth at 100 µM [23]?
Answer: -96%

Question: What about the growth at 0.1 µM [24] of the same molecule?
Answer: 96%

Question: And the growth at 100 µM [25]?
Answer: -79%

Question: And the GI50 [26]?
Answer: 1.89 µM

Question: What about the LC50 (concentration killing 50% of cells) [26] of the same molecule?
Answer: 5.61 µM

Question: And the TGI [26]?
Answer: 3.06 µM

Question: And the growth at 100 µM [27]?
Answer: -89%

Question: And the growth at 100 µM [28]?
Answer: -17%

Question: What about the growth at 0.01 µM [29] of the same molecule?
Answer: 104%

Question: And the growth at 1 µM [30]?
Answer: 77%

Question: What about the growth at 1 µM [31] of the same molecule?
Answer: 54%

Question: And the growth at 0.1 µM [32]?
Answer: 103%

Question: And the GI50 [33]?
Answer: 1.55 µM

Question: What about the TGI [33] of the same molecule?
Answer: 2.96 µM

Question: And the CC50 [33]?
Answer: 5.63 µM

Question: What about the GI50 [34] of the same molecule?
Answer: 1.29 µM

Question: What about the LC50 [34] of the same molecule?
Answer: 5.51 µM

Question: What about the TGI [34] of the same molecule?
Answer: 2.67 µM

Question: And the growth at 0.1 µM [35]?
Answer: 98%
